Consider four compounds from patent US8999295B2, “Technique for drug and gene delivery to the cell cytosol” (Brigham Young University, priority 2009, dated 2015).

The conditions of data set [1]: cited from earlier work.
Data set [2] in a line: Volume expansion ratio on liquid-to-vapor transformation. The note with it: at body temperature. In kind it is physicochemical.
For data set [3] the following is noted: at body temperature; cited from earlier work.

On to `O=O` [oxygen], for which the solubility in water in data set [1] is recorded as 1.32 mol/m^3.

Regarding `FC(F)(F)C(F)(F)C(F)(F)F` [perfluoropropane], the solubility in water in data set [1] is reported as 0.19 mol/m^3.

For the compound `FC(F)(F)C(F)(F)C(F)(F)C(F)(F)C(F)(F)F` [PFC5, perfluoropentane], the “expansion ratio (liquid to vapor volume)” value in data set [2] was “approximately 103”.

In the case of `FC(F)(F)C(F)(F)C(F)(F)C(F)(F)C(F)(F)C(F)(F)F` [perfluorohexane], in data set [3], the vapor pressure is on record as 0.48 atm. Besides, the solubility in water in data set [1] is 2.7×10^−4 mol/m^3. Besides, in data set [2], the “expansion ratio (liquid to vapor volume)” value is about 259.
